Molecules are shown by their SMILES.

The target in this test is T1, CCR3 (Homo sapiens, UniProt P51677).
T1 sequence (P51677 1-355): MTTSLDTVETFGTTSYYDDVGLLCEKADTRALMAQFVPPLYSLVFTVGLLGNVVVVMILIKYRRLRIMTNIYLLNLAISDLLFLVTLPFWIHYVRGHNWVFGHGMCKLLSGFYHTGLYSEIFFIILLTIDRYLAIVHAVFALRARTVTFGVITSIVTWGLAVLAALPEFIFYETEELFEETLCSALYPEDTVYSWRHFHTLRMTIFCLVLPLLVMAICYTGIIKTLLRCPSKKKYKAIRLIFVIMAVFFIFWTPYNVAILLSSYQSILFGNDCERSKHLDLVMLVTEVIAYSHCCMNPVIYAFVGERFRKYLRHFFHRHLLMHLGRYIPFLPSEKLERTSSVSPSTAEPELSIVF
As to the kind of experiment: CCR3 receptor binding assay ([125I]-labeled human eotaxin/CCL11 displacement on cells). To be noted: 0.1 nM [125I]-labeled human eotaxin/CCL11, 2×10^5 cells/well, 60 min at room temperature. As for the experimental part:
CCR3 Receptor Binding Assay
Cells were washed once with PBS and resuspended in a binding buffer (25 mM HEPES pH 7.6, 5 mM MgCl2, 1 mM CaCl2, 0.5% BSA, 0.1% NaN3). […] of cell suspension (2×10^5 cells/well) and 0.1 nM [^125I]-labeled human eotaxin/CCL11 (2000 Ci/mmol specific activity) were mixed in a 96-well U-bottom polypropylene plate, and incubated for 60 min at room temperature for the binding reaction. The cell suspension was then transferred to a filtration plate (#MAFB, Millipore), and washed 3 times with the binding buffer containing 0.5 M NaCl, scintillant added, and the radioactivity was counted on a TopCount (Packard). For the determination of non-specific binding, the cell suspension and [^125I]-labeled human eotaxin/CCL11 were incubated in the presence of 500 nM of unlabeled human eotaxin/CCL11. See, lino et al., “Molecular cloning and functional characterization of cynomolgus monkey (Macaca fascicularis) CC chemokine receptor, CCR3,” Cytokine 2002, 19, 276-286.
Consider `Cc1cc(C)cc(Oc2ccc(C#N)cc2S(=O)(=O)N2CCN(S(=O)(=O)CC34CCC(CC3=O)C4(C)C)CC2)c1` (centres unmarked) [Compound 51], for which the Ki was > 5 µM. The same measure for `Cc1cc(C)cc(Oc2ccc(C#N)cc2S(=O)(=O)N2CCN(S(C)(=O)=O)CC2)c1` [Compound 52, 4-(3,5-Dimethylphenoxy)-3-(4-(methylsulfonyl)piperazin-1-ylsulfonyl)benzonitrile]: > 5 µM; for `Cc1ccc(S(=O)(=O)N2CCN(S(=O)(=O)c3cc(C#N)ccc3Oc3cc(C)cc(C)c3)CC2)cc1` [Compound 53, 4-(3,5-Dimethylphenoxy)-3-(4-tosylpiperazin-1-ylsulfonyl)benzonitrile]: > 5 µM; for `Cc1cc(C)cc(Oc2ccc(C#N)cc2S(=O)(=O)N2CCN(C(=O)c3ccc(C(F)(F)F)cc3)CC2)c1` [Compound 54, 4-(3,5-Dimethylphenoxy)-3-(4-(4-(trifluoromethyl)benzoyl)piperazin-1-ylsulfonyl)benzonitrile]: > 5 µM. Then `Cc1cc(C)cc(Oc2ccc(C#N)cc2S(=O)(=O)N2CCN(C(=O)c3ccccc3)CC2)c1` [Compound 55, 3-(4-Benzoylpiperazin-1-ylsulfonyl)-4-(3,5-dimethylphenoxy)benzonitrile], with > 5 µM; and `Cc1cc(C)cc(Oc2ccc(C#N)cc2S(=O)(=O)N2CCN(S(=O)(=O)CC(C)C)CC2)c1` [Compound 56, 4-(3,5-Dimethylphenoxy)-3-(4-(isobutylsulfonyl)piperazin-1-ylsulfonyl)benzonitrile], with > 5 µM. The same measure for `CCC(=O)N1CCN(S(=O)(=O)c2cc(C#N)ccc2Oc2cc(C)cc(C)c2)CC1` [Compound 57, 4-(3,5-dimethylphenoxy)-3-(4-propionylpiperazin-1-ylsulfonyl)benzonitrile]: 0.5 to 5 µM; for `Cc1cc(C)cc(Oc2ccc(C#N)cc2S(=O)(=O)N2CCN(C(=O)NC(C)C)CC2)c1` [Compound 58, 4-(5-cyano-2-(3,5-dimethylphenoxy)phenylsulfonyl)-N-isopropylpiperazine-1-carboxamide]: 0.05 to 0.5 µM.

In the case of `CCC(C)(C)C(=O)N1CCN(S(=O)(=O)c2cc(C#N)ccc2Oc2cc(C)cc(C)c2)CC1` [Compound 59, 3-(4-(2,2-Dimethylbutanoyl)piperazin-1-ylsulfonyl)-4-(3,5-dimethylphenoxy)benzonitrile], the Ki was > 5 µM.

Consider `Cc1cc(C)cc(Oc2ccc(C#N)cc2S(=O)(=O)N2CCN(S(=O)(=O)c3ccc(C(F)(F)F)cc3)CC2)c1` [Compound 60, 4-(3,5-dimethylphenoxy)-3-(4-(4-(trifluoromethyl)phenylsulfonyl)piperazin-1-ylsulfonyl)benzonitrile], for which the Ki was > 5 µM. The same measure for `Cc1cc(C)cc(Oc2ccc(C#N)cc2S(=O)(=O)N2CCN(C(=O)Nc3cccc(F)c3)CC2)c1` [Compound 61, 4-(5-Cyano-2-(3,5-dimethylphenoxy)phenylsulfonyl)-N-(3-fluorophenyl)piperazine-1-carboxamide]: > 5 µM; for `CCc1ccc(NC(=O)N2CCN(S(=O)(=O)c3cc(C#N)ccc3Oc3cc(C)cc(C)c3)CC2)cc1` [Compound 62, 4-(5-Cyano-2-(3,5-dimethylphenoxy)phenylsulfonyl)-N-(4-ethylphenyl)piperazine-1-carboxamide]: > 5 µM; for `Cc1cc(C)cc(Oc2ccc(C#N)cc2S(=O)(=O)N2CCN(C(=O)C(C)(C)C)CC2)c1` [Compound 63, 4-(3,5-Dimethylphenoxy)-3-(4-pivaloylpiperazin-1-ylsulfonyl)benzonitrile]: > 5 µM. Then `Cc1cc(C)cc(Oc2ccc(C#N)cc2S(=O)(=O)N2CCN(C(=O)C3CCC3)CC2)c1` [Compound 64, 3-(4-(Cyclobutanecarbonyl)piperazin-1-ylsulfonyl)-4-(3,5-dmethylphenoxy)benzonitrile], with > 5 µM. Then `Cc1cc(C)cc(Oc2ccc(C#N)cc2S(=O)(=O)N2CCN(C(=O)C3CCCCC3)CC2)c1` [Compound 65, 3-(4-(Cyclohexanecarbonyl)piperazin-1-ylsulfonyl)-4-(3,5-dimethylphenoxy)benzonitrile], with > 5 µM; and `Cc1cc(C)cc(Oc2ccc(C#N)cc2S(=O)(=O)N2CCN(C(=O)CC(C)C)CC2)c1` [Compound 66, 4-(3,5-Dimethylphenoxy)-3-(4-(3-methylbutanoyl)piperazin-1-ylsulfonyl)benzonitrile], with > 5 µM. With `Cc1cc(C)cc(Oc2ccc(C#N)cc2S(=O)(=O)N2CCN(C(=O)CC(C)(C)C)CC2)c1` [Compound 67, 3-(4-(3,3-Dimethylbutanoyl)piperazin-1-ylsulfonyl)-4-(3,5-dimethylphenoxy)benzonitrile], the Ki was > 5 µM. The same measure for `Cc1cc(C)cc(Oc2ccc(C#N)cc2S(=O)(=O)N2CCN(C(=O)C3CCCC3)CC2)c1` [Compound 68, 3-(4-(Cyclopentanecarbonyl)piperazin-1-ylsulfonyl)-4-(3,5-dimethylphenoxy)benzonitrile]: > 5 µM.

Take `N#Cc1ccc(Oc2cc(Cl)cc(Cl)c2)c(S(=O)(=O)N2CCN(C(=O)c3ccc(C(F)(F)F)cc3)CC2)c1` [Compound 69, 4-(3,5-Dichlorophenoxy)-3-(4-(4-(trifluoromethyl)benzoyl)piperazin-1-ylsulfonyl)benzonitrile]: the Ki is > 5 µM. Then `N#Cc1ccc(Oc2cc(Cl)cc(Cl)c2)c(S(=O)(=O)N2CCN(C(=O)c3ccccc3)CC2)c1` [Compound 70, 3-(4-Benzoylpiperazin-1-ylsulfonyl)-4-(3,5-dichlorophenoxy)benzonitrile], with ≤ 0.05 µM.

For the compound `CC(C)(C)CC(=O)N1CCN(S(=O)(=O)c2cc(C#N)ccc2Oc2cc(Cl)cc(Cl)c2)CC1` [Compound 71, 4-(3,5-Dichlorophenoxy)-3-(4-(3,3-dimethylbutanoyl)piperazin-1-ylsulfonyl)benzonitrile], the Ki was > 5 µM. Then `CC(C)CC(=O)N1CCN(S(=O)(=O)c2cc(C#N)ccc2Oc2cc(Cl)cc(Cl)c2)CC1` [Compound 72, 4-(3,5-Dichlorophenoxy)-3-(4-(3-methylbutanoyl)piperazin-1-ylsulfonyl)benzonitrile], with 0.5 to 5 µM; and `N#Cc1ccc(Oc2cc(Cl)cc(Cl)c2)c(S(=O)(=O)N2CCN(C(=O)C3CCC3)CC2)c1` [Compound 73, 3-(4-(Cyclobutanecarbonyl)piperazin-1-ylsulfonyl)-4-(3,5-dichlorophenoxy)benzonitrile], with > 5 µM; and `N#Cc1ccc(Oc2cc(Cl)cc(Cl)c2)c(S(=O)(=O)N2CCN(C(=O)C3CCCC3)CC2)c1` [Compound 74, 3-(4-(Cyclopentanecarbonyl)piperazin-1-ylsulfonyl)-4-(3,5-dichlorophenoxy)benzonitrile], with > 5 µM. The same measure for `N#Cc1ccc(Oc2cc(Cl)cc(Cl)c2)c(S(=O)(=O)N2CCN(C(=O)Nc3cccc(F)c3)CC2)c1` [Compound 75, 4-(5-Cyano-2-(3,5-dichlorophenoxy)phenylsulfonyl)-N-(3-fluorophenyl)piperazine-1-carboxamide]: ≤ 0.05 µM; for `CS(=O)(=O)N1CCN(S(=O)(=O)c2cc(C#N)ccc2Oc2cc(Cl)cc(Cl)c2)CC1` [Compound 76, 4-(3,5-Dichlorophenoxy)-3-(4-(methylsulfonyl)piperazin-1-ylsulfonyl)benzonitrile]: ≤ 0.05 µM; for `Cc1ccc(S(=O)(=O)N2CCN(S(=O)(=O)c3cc(C#N)ccc3Oc3cc(Cl)cc(Cl)c3)CC2)cc1` [Compound 77, 4-(3,5-Dichlorophenoxy)-3-(4-tosylpiperazin-1-ylsulfonyl)benzonitrile]: ≤ 0.05 µM. As to `N#Cc1ccc(Oc2cc(Cl)cc(Cl)c2)c(S(=O)(=O)N2CCN(C(=O)c3ccc(Cl)cc3)CC2)c1` [Compound 78, 3-(4-(4-Chlorobenzoyl)piperazin-1-ylsulfonyl)-4-(3,5-dichlorophenoxy)benzonitrile], the Ki fell in the range of 0.05 to 0.5 µM. As for `Cc1cccc(C(=O)N2CCN(S(=O)(=O)c3cc(C#N)ccc3Oc3cc(Cl)cc(Cl)c3)CC2)c1` [Compound 79, 4-(3,5-Dichlorophenoxy)-3-(4-(3-methylbenzoyl)piperazin-1-ylsulfonyl)benzonitrile], the Ki was ≤ 0.05 µM. Then `CC(C)NC(=O)N1CCN(S(=O)(=O)c2cc(C#N)ccc2Oc2cc(Cl)cc(Cl)c2)CC1` [Compound 80, 4-(5-Cyano-2-(3,5-dichlorophenoxy)phenylsulfonyl)-N-isopropylpiperazine-1-carboxamide], with 0.5 to 5 µM; and `N#Cc1ccc(Oc2cc(Cl)cc(Cl)c2)c(S(=O)(=O)N2CCN(C(=O)c3cccc(Cl)c3)CC2)c1` [Compound 81, 3-(4-(3-Chlorobenzoyl)piperazin-1-ylsulfonyl)-4-(3,5-dichlorophenoxy)benzonitrile], with 0.5 to 5 µM.

`Cc1ccc(C(=O)N2CCN(S(=O)(=O)c3cc(C#N)ccc3Oc3cc(Cl)cc(Cl)c3)CC2)cc1` [Compound 82, 4-(3,5-Dichlorophenoxy)-3-(4-(4-methylbenzoyl)piperazin-1-ylsulfonyl)benzonitrile]: the Ki was 0.5 to 5 µM.

The record behind these values is patent US8658642B2 (Axikin Pharmaceuticals, Inc., priority 2009, dated 2014).
